Laboratory results published in PMC7054760, “Structural and biochemical evaluation of bisubstrate inhibitors of protein arginine N-methyltransferases PRMT1 and CARM1 (PRMT4)” (Biochemical Journal, 2020).
Where a chain is given by its changes, count along the chain named. Read-outs that look alike come from different tables or passages of the source.

What was measured:
[1] = test system: multiple myeloma xenograft model; set-up: method as in PMID 29269946; details: cited from earlier work
CARM1 = details: cited from earlier work
CARM1_135–479 = molecular target: T1, CARM1_135–479 (Homo sapiens, UniProt Q86X55); test: Radiometric methylation assay, CARM1 with H3(3–31) and [methyl-3H]-SAM; format: biochemical; details: 0.23 µM [3H]-SAM
T1 construct: human CARM1, residues 135 to 479; MBP (N, cleaved yes); linker and TEV site […]; (N, cleaved yes); made in house; host or cells: E. coli BL21-CodonPlus (DE3)-RIL
T1 sequence (Q86X55 135-479): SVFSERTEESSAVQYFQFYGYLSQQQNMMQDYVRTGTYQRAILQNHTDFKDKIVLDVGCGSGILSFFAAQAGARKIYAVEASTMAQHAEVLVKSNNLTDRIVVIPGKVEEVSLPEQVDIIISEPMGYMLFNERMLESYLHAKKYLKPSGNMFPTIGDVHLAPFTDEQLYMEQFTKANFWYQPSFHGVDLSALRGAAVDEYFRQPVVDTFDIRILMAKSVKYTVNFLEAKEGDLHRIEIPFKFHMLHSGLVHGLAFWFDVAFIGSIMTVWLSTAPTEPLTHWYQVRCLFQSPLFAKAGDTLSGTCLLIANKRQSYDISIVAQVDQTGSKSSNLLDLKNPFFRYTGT

PRMT1_22–361 = PRMT1_22–361 (Homo sapiens, UniProt Q99873); test: Radiometric methylation assay, PRMT1 with H4(1–21) and [methyl-3H]-SAM; format: biochemical; details: 160 nM PRMT1, 40 µM H4(1–21), 0.23 µM [3H]-SAM, 30°C, 60 min; read-out: IC50 (95% confidence interval), PRMT1
PRMT1_22–361, sequence (Q99873 32-371): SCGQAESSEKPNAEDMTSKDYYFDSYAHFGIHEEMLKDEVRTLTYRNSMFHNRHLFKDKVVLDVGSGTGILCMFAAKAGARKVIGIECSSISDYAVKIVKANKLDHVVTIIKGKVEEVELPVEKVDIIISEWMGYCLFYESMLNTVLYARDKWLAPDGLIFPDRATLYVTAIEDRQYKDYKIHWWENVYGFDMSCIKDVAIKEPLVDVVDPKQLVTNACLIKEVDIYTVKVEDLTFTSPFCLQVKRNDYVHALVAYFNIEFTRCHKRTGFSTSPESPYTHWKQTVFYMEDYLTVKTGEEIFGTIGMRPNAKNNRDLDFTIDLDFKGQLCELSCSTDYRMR

[2] = molecular target: T2, human CARM1 (CARM1_135–479) (Homo sapiens, UniProt Q86X55); test: Isothermal titration calorimetry (ITC) with CARM1 catalytic domain; format: binding; details: for -T∆S, CARM1: calculated indirectly; for ∆G, CARM1: calculated indirectly from best-fit Kd and ∆H; for Binding more strongly to CARM1 over PRMT1 (as judged by ITC): ratio of Kd values PRMT1/CARM1
T2 sequence (Q86X55 135-479): T1 sequence (Q86X55 135-479)

[3] = molecular target: human PRMT1 (PRMT1_22–361) (Homo sapiens, UniProt Q99873); test: Isothermal titration calorimetry (ITC) with PRMT1; format: binding; details: for -T∆S, PRMT1: calculated indirectly
human PRMT1 (PRMT1_22–361), sequence (Q99873 32-371): as above

CARM1 N161E = molecular target: T3, CARM1 N161E (Homo sapiens, UniProt Q86X55, N161E); test: ITC with CARM1 N161E mutant; details: for N ± standard error, CARM1 N161E / ∆H ± standard error, CARM1 N161E / -T∆S, CARM1 N161E / ∆G, CARM1 N161E: ITC; for -T∆S, CARM1 N161E / ∆G, CARM1 N161E: calculated indirectly
T3 sequence (Q86X55 135-479 N161E): T1 sequence (Q86X55 135-479) with N27E

CARM1 N265Y = molecular target: T4, CARM1 N265Y (Homo sapiens, UniProt Q86X55, N265Y); test: ITC with CARM1 N265Y mutant; details: for N ± standard error, CARM1 N265Y / ∆H ± standard error, CARM1 N265Y / -T∆S, CARM1 N265Y / ∆G, CARM1 N265Y: ITC; for -T∆S, CARM1 N265Y / ∆G, CARM1 N265Y: calculated indirectly
T4 sequence (Q86X55 135-479 N265Y): T1 sequence (Q86X55 135-479) with N131Y

other methyltransferases = test system: other methyltransferases; set-up: method as in PMID 29719619; details: cited from earlier work
[4] = molecular target: the molecule itself; test: crystal structure; CARM1(135-479) co-crystallised with small-molecule inhibitors 4, 5, 6 and 7; sitting-drop vapour diffusion, 20°C; space group P2(1)2(1)2
[5] = 320 nM CARM1, 120 µM H3(3–31), read-out: IC50 (95% confidence interval), CARM1
[6] = ITC, 25°C, read-out: Kd ± standard error, CARM1
[7] = ITC, Table 2, wild-type, read-out: Kd ± standard error from curve fitting, CARM1 WT

In the case of CNC[C@@H](O)COc1ccc(Cl)c(-c2nc(-c3c(C)noc3C)c(C)c(N3CC4(CCN(C(=O)OC)CC4)C3)n2)c1 [EPZ022302/EZM2302], the “Anti-tumour activity in vivo” value [1] is listed as “anti-tumour activity in vivo” and the IC50 (CARM1; read-out: CARM1 inhibitor potency) is listed as […].

With N=C(N)NCCCN(CCCN)C[C@H]1O[C@@H](n2cnc3c(N)ncnc32)[C@H](O)[C@@H]1O [Inhibitor 4] the IC50 (CARM1_135–479; [5]) was 2300 nM, the IC50 (PRMT1_22–361) was 7200 nM and the “N (stoichiometry) ± standard error from curve fitting, CARM1” value (shortened to “N (stoichiometry) ± standard error … CARM1”) ([2]; ITC) was 0.481 ± 0.0062. The “∆H ± standard error from curve fitting, CARM1” value ([2]; ITC) was -24.6 ± 0.633 kcal/mol, the Kd [2, 6] was 3320 ± 335 nM and the “-T∆S, CARM1” value ([2]; ITC) was 17.2 kcal/mol. The “∆G, CARM1” value ([2]; ITC) was -7.48 kcal/mol, the “N (stoichiometry) ± standard error from curve fitting, PRMT1” value [3] was 0.519 ± 0.0082 and the “∆H ± standard error from curve fitting, PRMT1” value ([3]; 10: competition experiment) was -16 ± 0.77 kcal/mol. The Kd ([3]; 25°C, direct titration, 7: stoichiometry fixed to 0.5, read-out: Kd ± standard error, PRMT1) was 10200 ± 996 nM, the “∆G, PRMT1” value ([3]; calculated indirectly from best-fit Kd and ∆H, 10: competition experiment) was -6.81 kcal/mol and the “-T∆S, PRMT1” value ([3]; 10: competition experiment) was 9.2 kcal/mol.

In the case of N=C(N)NCCCCCN(CC[C@H](N)C(=O)O)C[C@H]1O[C@@H](n2cnc3c(N)ncnc32)[C@H](O)[C@@H]1O [Inhibitor 7], the IC50 (CARM1_135–479; [5]) is reported as 24100 nM, the “N (stoichiometry) ± standard error … CARM1” value ([2]; ITC) is reported as 0.648 ± 0.032 and the “∆H ± standard error from curve fitting, CARM1” value ([2]; ITC) is reported as -18.6 ± 2.31 kcal/mol. For the same molecule, the Kd [2, 6] was 38100 ± 9610 nM, the Kd [2, 7] was 38100 ± 9610 nM and the “-T∆S, CARM1” value ([2]; ITC) was 12.5 kcal/mol. The “∆G, CARM1” value ([2]; ITC) was -6.02 kcal/mol and the Kd (CARM1 N161E) was 8180 ± 482 nM.

With NCCCN(CCCNc1ncccn1)C[C@H]1O[C@@H](n2cnc3c(N)ncnc32)[C@H](O)[C@@H]1O [Inhibitor 8] the IC50 (CARM1_135–479; [5]) was 700 nM, the Kd (CARM1 N265Y) was 5180 ± 1860 nM and the “N ± standard error, CARM1 N265Y” value (CARM1 N265Y) was 0.698 ± 0.051. The “∆H ± standard error, CARM1 N265Y” value (CARM1 N265Y) was -15 ± 2.01 kcal/mol, the “-T∆S, CARM1 N265Y” value (CARM1 N265Y) was 7.82 kcal/mol and the “∆G, CARM1 N265Y” value (CARM1 N265Y) was -7.22 kcal/mol. For the same molecule, the “N (stoichiometry) ± standard error … CARM1” value ([2]; ITC) was 0.529 ± 0.0042, the “∆H ± standard error from curve fitting, CARM1” value ([2]; ITC) was -29.6 ± 0.445 kcal/mol and the Kd [2, 6] was 2300 ± 162 nM. For the same molecule, the Kd [2, 7] was 2300 ± 162 nM, the “-T∆S, CARM1” value ([2]; ITC) was 22 kcal/mol and the “∆G, CARM1” value ([2]; ITC) was -7.7 kcal/mol. The Kd (CARM1 N161E) was 1110 ± 201 nM, the “N ± standard error, CARM1 N161E” value (CARM1 N161E) was 0.745 ± 0.012 and the “∆H ± standard error, CARM1 N161E” value (CARM1 N161E) was -27 ± 0.906 kcal/mol. The “-T∆S, CARM1 N161E” value (CARM1 N161E) was 18.9 kcal/mol and the “∆G, CARM1 N161E” value (CARM1 N161E) was -8.13 kcal/mol.

In the case of NCCCN(CCCNc1ccccn1)C[C@H]1O[C@@H](n2cnc3c(N)ncnc32)[C@H](O)[C@@H]1O [Inhibitor 9], the IC50 (CARM1_135–479; [5]) is reported as 300 nM, the Kd (CARM1 N265Y) is reported as 3260 ± 458 nM and the “N ± standard error, CARM1 N265Y” value (CARM1 N265Y) is reported as 1.07 ± 0.035. The “∆H ± standard error, CARM1 N265Y” value (CARM1 N265Y) was -14.8 ± 0.803 kcal/mol, the “-T∆S, CARM1 N265Y” value (CARM1 N265Y) was 7.31 kcal/mol and the “∆G, CARM1 N265Y” value (CARM1 N265Y) was -7.48 kcal/mol. The “N (stoichiometry) ± standard error … CARM1” value ([2]; ITC) was 0.529 ± 0.025, the “∆H ± standard error from curve fitting, CARM1” value ([2]; ITC) was -20.6 ± 1.77 kcal/mol and the Kd [2, 6] was 1140 ± 411 nM. For the same molecule, the Kd [2, 7] was 1140 ± 411 nM, the “-T∆S, CARM1” value ([2]; ITC) was 12.5 kcal/mol and the “∆G, CARM1” value ([2]; ITC) was -8.13 kcal/mol. For the same molecule, the “Binding more strongly to CARM1 over PRMT1 (as judged by ITC)” value [2] was ~15 fold, the Kd (CARM1 N161E) was 354 ± 34 nM and the “N ± standard error, CARM1 N161E” value (CARM1 N161E) was 0.914 ± 0.005. For the same molecule, the “∆H ± standard error, CARM1 N161E” value (CARM1 N161E) was -20.7 ± 0.28 kcal/mol, the “-T∆S, CARM1 N161E” value (CARM1 N161E) was 11.9 kcal/mol and the “∆G, CARM1 N161E” value (CARM1 N161E) was -8.8 kcal/mol.

With Nc1ncnc2c1ncn2[C@@H]1O[C@H](CN(CCCNc2ccccn2)CC[C@H](N)C(=O)O)[C@@H](O)[C@H]1O [Inhibitor 10] the IC50 (CARM1_135–479; IC50 (95% confidence interval), CARM1, 320 nM CARM1, 120 µM H3(3–31)) was 800 nM, the Kd (CARM1 N265Y) was 143000 ± 75900 nM and the “N (stoichiometry) ± standard error … CARM1” value ([2]; ITC) was 0.536 ± 0.0079. For the same molecule, the “∆H ± standard error from curve fitting, CARM1” value ([2]; ITC) was -17.5 ± 0.459 kcal/mol, the “-T∆S, CARM1” value ([2]; ITC) was 9.35 kcal/mol and the “∆G, CARM1” value ([2]; ITC) was -8.13 kcal/mol. The Kd ([2]; Kd ± standard error from curve fitting, CARM1 WT, ITC, Table 2, wild-type) was 1110 ± 132 nM, the Kd ([2]; Kd ± standard error, CARM1, ITC, 25°C) was 1110 ± 132 nM and the “Binding more strongly to CARM1 over PRMT1 (as judged by ITC)” value [2] was ~40 fold. For the same molecule, the Kd (CARM1 N161E) was 181 ± 17 nM, the “N ± standard error, CARM1 N161E” value (CARM1 N161E) was 1.02 ± 0.004 and the “∆H ± standard error, CARM1 N161E” value (CARM1 N161E) was -22.5 ± 0.232 kcal/mol. The “-T∆S, CARM1 N161E” value (CARM1 N161E) was 13.3 kcal/mol and the “∆G, CARM1 N161E” value (CARM1 N161E) was -9.2 kcal/mol.

With Nc1ncnc2c1ncn2[C@@H]1O[C@H](CSCC[C@H](N)C(=O)O)[C@@H](O)[C@H]1O [SAH, S-Adenosylhomocysteine, reference compound] the “N ± standard error, CARM1 N265Y” value (CARM1 N265Y) was 0.737 ± 0.004, the “∆H ± standard error, CARM1 N265Y” value (CARM1 N265Y) was -23.7 ± 0.251 kcal/mol and the “-T∆S, CARM1 N265Y” value (CARM1 N265Y) was 15.8 kcal/mol. The “∆G, CARM1 N265Y” value (CARM1 N265Y) was -7.96 kcal/mol, the “N (stoichiometry) ± standard error … CARM1” value ([2]; ITC) was 0.549 ± 0.0086 and the “∆H ± standard error from curve fitting, CARM1” value ([2]; ITC) was -35.1 ± 1.1 kcal/mol. The “-T∆S, CARM1” value ([2]; ITC) was 27 kcal/mol, the “N (stoichiometry) ± standard error from curve fitting, PRMT1” value [3] was 0.485 ± 0.0037 and the “∆H ± standard error from curve fitting, PRMT1” value ([3]; 10: competition experiment) was -23.4 ± 0.335 kcal/mol. For the same molecule, the “-T∆S, PRMT1” value ([3]; 10: competition experiment) was 15 kcal/mol, the “N ± standard error, CARM1 N161E” value (CARM1 N161E) was 0.692 ± 0.0047 and the “∆H ± standard error, CARM1 N161E” value (CARM1 N161E) was -29.9 ± 0.44 kcal/mol. The “-T∆S, CARM1 N161E” value (CARM1 N161E) was 20.6 kcal/mol and the “∆G, CARM1 N161E” value (CARM1 N161E) was -9.39 kcal/mol.

B1: catalytic domain of human CARM1, residues 135 to 479 (domain or fragment, UniProt Q86X55 135-479, looked up)
chain: T1 sequence (Q86X55 135-479)
notes: MBP and the linker removed with TEV protease; also called CARM1_(135–479); CARM1 catalytic domain; not shown: MBP, N-terminal, cleaved
B1: binds [4].
